Data reported in PubChem BioAssay (NCI).
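96-well plates; 48 h exposure; 5 concentrations. Endpoints by linear interpolation between flanking doses. Not reached: highest tested concentration assigned. TGI: concentration producing complete growth inhibition.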

Legend:
Assay in all cases: growth of human tumour cells (NCI), 48 h
[1] = system: OVCAR-3 ovarian
[2] = system: KM12 colon
[3] = system: MDA-MB-231 breast
[4] = system: NCI-H460 lung
[5] = system: COLO 205 colon
[6] = system: MDA-MB-435
[7] = system: RXF 393 renal
[8] = system: UO-31 renal
[9] = system: HS 578T breast
[10] = system: HL-60(TB) leukemia
[11] = system: SK-OV-3 ovarian
[12] = system: BT-549 breast
[13] = system: UACC-62 melanoma
[14] = system: M14 melanoma
[15] = system: MOLT-4 leukemia
[16] = system: OVCAR-5 ovarian
[17] = system: PC-3 prostate
[18] = system: NCI-H226 lung
[19] = system: SK-MEL-2 melanoma
[20] = system: HT29 colon
[21] = system: IGROV1 ovarian
[22] = system: SR leukemia
[23] = system: HCC-2998 colon
[24] = system: HCT-116 colon
[25] = system: UACC-257 melanoma
[26] = system: SK-MEL-5 melanoma
[27] = system: K-562 leukemia
[28] = system: HOP-92 NSCLC
[29] = system: SN12C renal
[30] = system: MDA-N
[31] = system: CCRF-CEM leukemia
[32] = system: SNB-75 CNS
[33] = system: EKVX NSCLC
[34] = system: A549 NSCLC
[35] = system: NCI-H23 lung
[36] = system: MALME-3M melanoma
[37] = system: SF-539 CNS
[38] = system: SW-620 colon
[39] = system: LOX IMVI melanoma
[40] = system: U251 CNS
[41] = system: SK-MEL-28 melanoma
[42] = system: SNB-19 CNS
[43] = system: 786-0 renal
[44] = system: MCF7 breast
[45] = system: CAKI-1 renal
[46] = system: NCI/ADR-RES ovarian
[47] = system: HCT-15 colon
[48] = system: A498 renal
[49] = system: HOP-62 NSCLC
[50] = system: TK-10 renal
[51] = system: ACHN renal
[52] = system: SF-295 CNS
[53] = system: OVCAR-8 ovarian
[54] = system: OVCAR-4 ovarian
[55] = system: SF-268 CNS
[56] = system: T-47D breast
[57] = system: DU-145 prostate
[58] = system: RPMI-8226 leukemia
[59] = system: NCI-H522 lung

SMILES: O=C1Nc2c(Cl)cc(Cl)cc2C1=O
- TGI [1]: 52.5 µM
- TGI [2]: > 100 µM
- TGI [3]: 45.9 µM
- TGI [4]: 47.6 µM
- TGI [5]: 50.8 µM
- TGI [6]: 15.2 µM
- TGI [7]: 28.2 µM
- TGI [8]: 44.9 µM
- TGI [9]: 37.6 µM
- TGI [10]: 26.7 µM
- TGI [11]: > 100 µM
- TGI [12]: 35.1 µM
- TGI [13]: 30.2 µM
- TGI [14]: 38.6 µM
- TGI [15]: 48.6 µM
- TGI [16]: 40.7 µM
- TGI [17]: > 100 µM
- TGI [18]: 46.6 µM
- TGI [19]: 29.7 µM
- TGI [20]: > 100 µM
- TGI [21]: 50.3 µM
- TGI [22]: 39.4 µM
- TGI [23]: 83.4 µM
- TGI [24]: 40.5 µM
- TGI [25]: 35.1 µM
- TGI [26]: 28.8 µM
- TGI [27]: > 100 µM
- TGI [28]: 57.5 µM
- TGI [29]: 32.2 µM
- TGI [30]: 21.8 µM
- TGI [31]: 72.9 µM
- TGI [32]: 28.6 µM
- TGI [33]: 29.6 µM
- TGI [34]: 35.9 µM
- TGI [35]: 48.7 µM
- TGI [36]: 7.88 µM
- TGI [37]: 34.4 µM
- TGI [38]: 41.5 µM
- TGI [39]: 35.5 µM
- TGI [40]: 55.2 µM
- TGI [41]: 35.4 µM
- TGI [42]: > 100 µM
- TGI [43]: 39.5 µM
- TGI [44]: 39.6 µM
- TGI [45]: 35.4 µM
- TGI [46]: 54.5 µM
- TGI [47]: 47.5 µM
- TGI [48]: 53.4 µM
- TGI [49]: 40.4 µM
- TGI [50]: > 100 µM
- TGI [51]: > 100 µM
- TGI [52]: 31.8 µM
- TGI [53]: 55.8 µM
- TGI [54]: 33.1 µM

SMILES: O=C1OCC2=C1C(c1ccc3c(c1)OCO3)c1cc3c(cc1O2)OCO3 (configuration not stated)
- TGI [1]: > 21.3 µM
- TGI [2]: > 100 µM
- TGI [3]: > 100 µM
- TGI [55]: > 100 µM
- TGI [4]: > 100 µM
- TGI [5]: 15.2 µM
- TGI [6]: 0.323 µM
- TGI [7]: 7.6 µM
- TGI [8]: > 85.6 µM
- TGI [9]: 20.8 µM
- TGI [10]: 0.365 µM
- TGI [11]: > 85.2 µM
- TGI [13]: > 72.6 µM
- TGI [14]: 11.4 µM
- TGI [15]: > 49.1 µM
- TGI [16]: > 100 µM
- TGI [17]: > 63.7 µM
- TGI [18]: > 100 µM
- TGI [19]: > 100 µM
- TGI [20]: 3.54 µM
- TGI [21]: > 100 µM
- TGI [22]: 5.19 µM
- TGI [23]: 59.3 µM
- TGI [24]: 41.5 µM
- TGI [25]: > 100 µM
- TGI [26]: > 100 µM
- TGI [27]: 28.8 µM
- TGI [28]: > 100 µM
- TGI [29]: > 100 µM
- TGI [30]: 0.368 µM
- TGI [31]: > 30.7 µM
- TGI [32]: 11.9 µM
- TGI [33]: > 100 µM
- TGI [34]: > 100 µM
- TGI [35]: > 100 µM
- TGI [56]: > 100 µM
- TGI [57]: > 58.8 µM
- TGI [36]: > 100 µM
- TGI [58]: 10.5 µM
- TGI [59]: 0.533 µM
- TGI [37]: 2.81 µM
- TGI [38]: > 100 µM
- TGI [39]: > 100 µM
- TGI [40]: > 100 µM
- TGI [41]: > 59.1 µM
- TGI [42]: > 27.2 µM
- TGI [43]: > 30.1 µM
- TGI [44]: > 100 µM
- TGI [45]: > 100 µM
- TGI [46]: 2.03 µM
- TGI [47]: > 79.1 µM
- TGI [48]: 42.8 µM
- TGI [49]: > 100 µM
- TGI [50]: > 100 µM
- TGI [51]: > 100 µM
- TGI [52]: > 72.2 µM
- TGI [53]: 68.1 µM
- TGI [54]: > 100 µM
